What was measured:
Assay in all cases: normalised percent inhibition of luminescence (vs positive and negative controls); higher = stronger inhibition
[1] = tested on: NanoLuc luciferase (NLuc)
Description: (§1)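 Concentration-response (>=11 concentrations) of metal salts on purified FLuc, NLuc or RLuc luminescence in screening (SC) or 100 mM HEPES (H) buffer; salt pre-incubated with enzyme 10 min at RT, read 10 min after substrate. Normalised percent inhibition vs plate positive (PTC-124, isradipine, BTS) and DMSO negative controls; triplicate wells.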

[2] = tested on: firefly luciferase (FLuc)
Description: as §1

[3] = tested on: Renilla luciferase (RLuc)
Description: as §1

O=[N+]([O-])[O-].[Ag+] [silver nitrate]
normalised percent inhibition [%]
Details | [1] | [2] | [3]
metal salt concentration 1.56 nM, screening conditions buffer | – | -3.5 | –
metal salt concentration 3.13 nM, screening conditions buffer | – | 8.07 | –
metal salt concentration 6.25 nM, screening conditions buffer | – | -11.6 | –
metal salt concentration 12.5 nM, screening conditions buffer | – | 2.67 | –
metal salt concentration 25 nM, screening conditions buffer | – | -5.14 | –
metal salt concentration 50 nM, screening conditions buffer | – | 1.37 | –
metal salt concentration 0.0001 mM, 100 mM HEPES buffer | 1.65 | 98 | 2.89
metal salt concentration 0.0001 mM, screening conditions buffer | – | 0.486 | –
metal salt concentration 0.00025 mM, 100 mM HEPES buffer | -1.44 | 100.3 | -2.96
metal salt concentration 0.00025 mM, screening conditions buffer | – | 54.3 | –
metal salt concentration 0.0005 mM, 100 mM HEPES buffer | -1.42 | 99.84 | -1.85
metal salt concentration 0.0005 mM, screening conditions buffer | – | 100.1 | –
metal salt concentration 0.001 mM, 100 mM HEPES buffer | 2.97 | 100.3 | -11.8
metal salt concentration 0.001 mM, screening conditions buffer | – | 100.19 | –
metal salt concentration 0.002 mM, screening conditions buffer | 20.8 | 100.6 | 10.7
metal salt concentration 0.005 mM, screening conditions buffer | 80.1 | 100.7 | 8.28
metal salt concentration 0.01 mM, 100 mM HEPES buffer | – | – | -3.09
metal salt concentration 0.01 mM, screening conditions buffer | 88 | 100.4 | 13
metal salt concentration 0.02 mM, 100 mM HEPES buffer | – | – | -4.38
metal salt concentration 0.02 mM, screening conditions buffer | 107 | 100.7 | 14.2
metal salt concentration 0.025 mM, 100 mM HEPES buffer | 99.59 | 100.4 | 84.8
metal salt concentration 0.04 mM, 100 mM HEPES buffer | – | – | 47.3
metal salt concentration 0.05 mM, 100 mM HEPES buffer | 51.4 | 100.3 | 104
metal salt concentration 0.05 mM, screening conditions buffer | 118 | 99.8 | 38.8
metal salt concentration 0.1 mM, 100 mM HEPES buffer | 100.8 | 100.6 | 107
metal salt concentration 0.1 mM, screening conditions buffer | 119 | – | 81.2
metal salt concentration 0.2 mM, screening conditions buffer | 133.6 | – | 101
metal salt concentration 0.5 mM, 100 mM HEPES buffer | 101.7 | 100 | 106
metal salt concentration 0.5 mM, screening conditions buffer | 119 | – | 105.9
metal salt concentration 1 mM, 100 mM HEPES buffer | 101.7 | 99.8 | 106
metal salt concentration 1 mM, screening conditions buffer | 120 | – | 105.9
metal salt concentration 2.5 mM, 100 mM HEPES buffer | 101.97 | 100.4 | 106.7
metal salt concentration 2.5 mM, screening conditions buffer | 134.8 | – | 106.2
metal salt concentration 5 mM, 100 mM HEPES buffer | 102 | 100.5 | 106
metal salt concentration 5 mM, screening conditions buffer | 135.3 | – | 106.1

O=[N+]([O-])[O-].O=[N+]([O-])[O-].[Zn+2] [zinc nitrate]
normalised percent inhibition [%]
Details | [1] | [2] | [3]
metal salt concentration 10 nM, 100 mM HEPES buffer | – | 16.5 | –
metal salt concentration 50 nM, 100 mM HEPES buffer | – | -0.254 | –
metal salt concentration 0.0001 mM, 100 mM HEPES buffer | – | -1.38 | –
metal salt concentration 0.00025 mM, 100 mM HEPES buffer | – | 5.03 | –
metal salt concentration 0.0005 mM, 100 mM HEPES buffer | – | 35.7 | –
metal salt concentration 0.001 mM, 100 mM HEPES buffer | – | 47.4 | –
metal salt concentration 0.002 mM, screening conditions buffer | 0.728 | 21.1 | -5.83
metal salt concentration 0.005 mM, screening conditions buffer | -0.897 | 16.4 | -7.07
metal salt concentration 0.01 mM, screening conditions buffer | 10.7 | 20.5 | -4.95
metal salt concentration 0.02 mM, screening conditions buffer | 7.25 | 17.9 | -5.53
metal salt concentration 0.025 mM, 100 mM HEPES buffer | – | 86.7 | –
metal salt concentration 0.05 mM, 100 mM HEPES buffer | – | 92.6 | –
metal salt concentration 0.05 mM, screening conditions buffer | 35.8 | 11.7 | -2.83
metal salt concentration 0.1 mM, 100 mM HEPES buffer | – | 96.3 | –
metal salt concentration 0.1 mM, screening conditions buffer | 66 | 28.6 | -8.31
metal salt concentration 0.2 mM, screening conditions buffer | 78.9 | 15 | -2.75
metal salt concentration 0.5 mM, 100 mM HEPES buffer | – | 100.2 | –
metal salt concentration 0.5 mM, screening conditions buffer | 77 | 29.1 | -0.599
metal salt concentration 1 mM, 100 mM HEPES buffer | – | 100.1 | –
metal salt concentration 1 mM, screening conditions buffer | 89 | 46.4 | 8.71
metal salt concentration 2.5 mM, 100 mM HEPES buffer | – | 100.4 | –
metal salt concentration 2.5 mM, screening conditions buffer | 111 | 100.6 | -1
metal salt concentration 5 mM, 100 mM HEPES buffer | – | 100.2 | –
metal salt concentration 5 mM, screening conditions buffer | 126 | 100.2 | 85.5

[Cl][Sn][Cl] [tin(II) chloride]
normalised percent inhibition [%]
Details | [1] | [2] | [3]
metal salt concentration 0.0001 mM, 100 mM HEPES buffer | -1.04 | -37.6 | -43.6
metal salt concentration 0.00025 mM, 100 mM HEPES buffer | -2.95 | -36.8 | -34
metal salt concentration 0.0005 mM, 100 mM HEPES buffer | -1.03 | -25.8 | -29.8
metal salt concentration 0.001 mM, 100 mM HEPES buffer | -2.16 | -45.1 | -28.6
metal salt concentration 0.002 mM, screening conditions buffer | 1.6 | -6.84 | 2.49
metal salt concentration 0.005 mM, screening conditions buffer | 4.64 | -10.8 | -3.55
metal salt concentration 0.01 mM, screening conditions buffer | 3.42 | 6.44 | 13.4
metal salt concentration 0.02 mM, screening conditions buffer | -0.105 | 1.32 | -6.49
metal salt concentration 0.025 mM, 100 mM HEPES buffer | -3.24 | -26.1 | -15.8
metal salt concentration 0.05 mM, 100 mM HEPES buffer | 6.37 | -13.9 | -15
metal salt concentration 0.05 mM, screening conditions buffer | -1.81 | 19.1 | -5.21
metal salt concentration 0.1 mM, 100 mM HEPES buffer | -5.15 | -9.51 | -35
metal salt concentration 0.1 mM, screening conditions buffer | 1.62 | 56.5 | -1.32
metal salt concentration 0.2 mM, screening conditions buffer | 6.52 | 99.33 | -3.23
metal salt concentration 0.5 mM, 100 mM HEPES buffer | -1.5 | 11.7 | -38.9
metal salt concentration 0.5 mM, screening conditions buffer | 8.42 | 100.6 | -6.09
metal salt concentration 1 mM, 100 mM HEPES buffer | -2.37 | 37.6 | -53
metal salt concentration 1 mM, screening conditions buffer | 20.2 | 100.2 | -5.29
metal salt concentration 2.5 mM, 100 mM HEPES buffer | -3.02 | 63.9 | -45.3
metal salt concentration 2.5 mM, screening conditions buffer | 93.83 | 100.4 | -6.8
metal salt concentration 5 mM, 100 mM HEPES buffer | 11.3 | 100.7 | 79.9
metal salt concentration 5 mM, screening conditions buffer | 137.11 | 100.5 | 103

[Cl][Fe]([Cl])[Cl] [iron(III) chloride]
normalised percent inhibition [%]
Details | [1] | [2] | [3]
metal salt concentration 0.0001 mM, 100 mM HEPES buffer | -1.25 | -26 | -21.7
metal salt concentration 0.00025 mM, 100 mM HEPES buffer | -4.27 | -29.2 | -24.6
metal salt concentration 0.0005 mM, 100 mM HEPES buffer | -1.65 | -34.9 | -24.2
metal salt concentration 0.001 mM, 100 mM HEPES buffer | -0.138 | -41.7 | -15.5
metal salt concentration 0.002 mM, screening conditions buffer | 0.19 | 14.7 | 0.819
metal salt concentration 0.005 mM, screening conditions buffer | 4.14 | 55.7 | -4.9
metal salt concentration 0.01 mM, screening conditions buffer | 8.93 | 85.4 | -11.6
metal salt concentration 0.02 mM, screening conditions buffer | 14.5 | 95.8 | 0.263
metal salt concentration 0.025 mM, 100 mM HEPES buffer | 5.06 | 99.41 | -1.73
metal salt concentration 0.05 mM, 100 mM HEPES buffer | 15 | 99.62 | 36.7
metal salt concentration 0.05 mM, screening conditions buffer | -3.71 | 82.4 | -5.21
metal salt concentration 0.1 mM, 100 mM HEPES buffer | 35.6 | 100.6 | 61.1
metal salt concentration 0.1 mM, screening conditions buffer | 28.5 | 71.9 | 23.9
metal salt concentration 0.2 mM, screening conditions buffer | 31.9 | 95.4 | 32.6
metal salt concentration 0.5 mM, 100 mM HEPES buffer | 99.75 | 100.3 | 103
metal salt concentration 0.5 mM, screening conditions buffer | 52.9 | 100.2 | 48.5
metal salt concentration 1 mM, 100 mM HEPES buffer | 101.4 | 99.6 | 103
metal salt concentration 1 mM, screening conditions buffer | 89.6 | 100.6 | 75.5
metal salt concentration 2.5 mM, 100 mM HEPES buffer | 101.8 | 100.2 | 105.7
metal salt concentration 2.5 mM, screening conditions buffer | 137.4 | 100.6 | 94.4
metal salt concentration 5 mM, 100 mM HEPES buffer | 102.12 | 99.84 | 106.2
metal salt concentration 5 mM, screening conditions buffer | 137.49 | 100.5 | 105

Source: the supplement of paper PMC11628255, “Interference of metal ions on the bioluminescent signal of firefly, Renilla, and NanoLuc luciferases in high-throughput screening assays” (Frontiers in Chemistry, 2024)
